Measurements from US12534707B2, “Method for generating cardiac tissue mimetics” (GENOME BIOLOGICS UG, priority 2019, dated 2026).
“Also recorded” adds a separate entry of the source.

How the values were obtained:
[1] = system: cardiac tissue mimetics (CTMs); assay: Lactate dehydrogenase assay and toxicity assay (phospho-Histone H2A.X) of CTMs; assay type: cell-based, rat, human
Procedure: Media of CTMs were replaced completely with fresh medium 24 h before performing the assays. After 24 h, supernatants were collected and in maximum 50 μL of each supernatant was used for every measurement with the Lactate Dehydrogenase Activity Kit (Sigma; MAK066). To determine enzyme activity, the absorbance at 450 nm (A450) was measured with the CLARIOstar plate reader (BMG Labtech). LDH activity were calculated following the manufacturer's instruction. CTMs that incubated with 0.2% H2O2 in medium for 30 minutes at 37° C. served as positive control.

[2] = system: CTMs obtained from human iPSC; assay: Stress response of CTMs obtained from human iPSC (contraction frequency, volume, lactate); assay type: cell-based; conditions: 200 μM PE
Procedure: After 10 days of culture, CTMs were treated with 200 μM Phenylephrine (PE), and in parallel, were cultured under conditions of hypoxia (3% O2). Videos of contracting CTMs were recorded for 1 min and analysed to observe the response. The contraction frequency was measured at day 3 (to obtain a short-term response) and day 20 (to obtain a long-term response). […] Human iPS cardiomyocytes (hiPS-CMs) were ordered from Fujifilm CDI and thawed before the culture. Human cardiac fibroblasts (hCFB) were cultured and trypsinized. The two cell types were mixed at a CM:FB ratio of 5:1 in plating medium (PM provided by CDI). The mixed cells were left to form cardiac tissue mimetics in 30 μL hanging drops containing PM with a density of 5000 hiPS-CMs and 1000 hCFB and incubated at 37° for four days. The cardiac tissue mimetics were then collected, and every single cardiac tissue mimetic was again distributed into each well of ultra-low-attachment (ULA) plates with maintenance medium (MM; provided by CDI). MM was changed every two days. After seven days, human IPS endothelial cells (hiPS-ECs) were thawed and added into each well at a CM:EC ratio of 2:1. A mixed medium of MM and EC growth medium (EGM; provided by CDI) at a 1:1 ratio was used and half of the medium was changed every second day. After 10 days cardiac tissue mimetics were harvested for further assays.

[3] = system: cardiac tissue mimetics (CTMs); assay: Contractility measurement of CTMs (spontaneous beats per minute; pacing at 1 Hz and 15 V); conditions: PE-treated vs control, electric pacing 1 Hz; FIG. 8
[4] = system: cardiac tissue mimetics (CTMs); assay: Seahorse assay (OCR, ECAR) of CTMs; assay type: cell-based, rat, human; conditions: PE-treated vs control CTMs
Procedure: The Agilent Seahorse XFe96 spheroid microplate was coated with Poly-D Lysine 100 μg/mL following the manual instruction. 1×KHB medium (111 mM NaCl, 4.7 mM KCl, 2 mM MgSO4, 1.2 mM Na2HPO4, 2.5 mM D-Glucose, 0.5 mM carnitine) supplemented with 6 mM D-Glucose was prepared prior the experiment. CTMs were washed twice with KHB medium and every single CTM was then transferred directly into each well of XFe96 spheroid microplate containing 175 μL of KHB medium. CTMs were centered into the micro-chamber and incubated at 37° C. in non-CO2 incubator for 1 hour. The Seahorse XF Cell Mito Stress Test was performed using sequential injection of Oligomycin (2.5 μM, Sigma, O4876), FCCP (2.0 μM, Sigma, C2920) and Antimycin A (0.5 μM, Sigma, A8674) following a 3-min-mixing and 3-min-measuring cycles for up to 2 hours. Oxygen consumption rate (OCR) and Extracellular acidification rate (ECAR) were measured and calculated using Seahorse XFe96 Analyzers (Agilent Technologies).

[5] = system: cardiac tissue mimetics (CTMs); assay: CTM size measurement; conditions: 200 μM PE, 10 days, vs untreated control; FIG. 4
[6] = system: cardiac tissue mimetics (CTMs); assay: Fluorescence immunohistochemistry of CTMs (α-actinin, WGA, Atp5a1); assay type: cell-based, rat, human
Procedure: Cryosections of CTMs were stained with DAPI, anti-α-Actinin and Alexa Flour conjugate of Wheat-Germ-Agglutinin. Area of 100 cardiomyocytes per condition were quantified using ImageJ. In case of whole mount stainings, CTMs were permeabilized with 0.2% Triton® X-100 in PBS for 1 hour at room temperature followed by blocking with 5% horse serum (Sigma-Aldrich) in PBS for 30 minutes at room temperature. Primary antibodies (see Table 1) were diluted 1:200 in 5% horse serum and incubated over night at 4° C. Before using the secondary antibody (see table below), CTMs were washed three times with PBS containing 1% Tween 20 and 0.002% Triton® X-100 (referred as PBT from here after) for 20 minutes at room temperature. Secondary antibodies (1:500) and DAPI (1:1000; Carl-Roth GmbH & Co. KG) were diluted in 5% horse serum together and incubated for 4 hours at room temperature in the dark. […] Cryo-sections were prepared by embedding fixed spheroids in O.C.T medium (Tissue-Tek), snap-freezing them in liquid nitrogen and cutting them in 10 μm thick sections. Sections were permeabilized and blocked for one hour in 0.1% Triton® X100 (in PBS+BSA). Primary antibody incubated with the sections diluted 1:50-1:100 in 1 mM MgCl2, 1 mM CaCl2, 0.1 mM MnCl2, 1% Triton® X-100 or 0.2% saponin over night at 4° C. […]

HUVEC spheroids = assay: Spheroid-based angiogenic sprouting assay; assay type: cell-based, human
Procedure: After 72 hours, cell culture supernatants were centrifuged (500×g, 5 minutes) to deplete dead cells and stored at −80° C.
Endothelial cell sprouting was studied by in vitro spheroid-based angiogenesis assays. In brief, HUVECs were trypsinized and transferred into a mixture of fully supplemented EBM™ and methylcellulose (80%:20%). […] After 24 hours, spheroids were collected, pelleted (200×g, 3 minuted), resuspended in methylcellulose supplemented with FCS (80%:20%) and embedded in a collagen Type-I gel (Corning; 354236). HUVEC spheroids were then either cultured with fully supplemented EBM (+/−VEGF (50 ng/mL; BioLegend; 583702) or +/−PE (200 μM)), maintenance medium or conditioned cell culture medium.

[7] = system: cardiac tissue mimetics (CTMs); assay: mRNA expression in CTMs (qPCR of titin isoforms, bulk RNA sequencing); assay type: cell-based, rat, human
Procedure: CTMs, heart tissues of neonatal pups and adult rats were collected into Lysing Matrix D tubes (MP Biomedical; 6913-500) and 700 μL of TriFast (VWR; 3010-100ML) was added. Cells and tissues were homogenized 3 times for 20 s following by 5 min. pause on ice. Total RNA was purified with the Direct-zol™ RNA MicroPrep kit (Zymo Research; R2060). The RNA concentration was determined by measuring absorption at 260 nm and 280 nm with the NanoDrop® ND 2000-spectrophotometer (Peq Lab).
cDNA was synthesized from 500 ng of total RNA with EcoDry Premix RNA to cDNA (Random Hexamers) (Clontech; 639546). qPCR was performed using 10 μL of iTaq™ Universal SYBR® Green Supermix (Bio-Rad; 172-5124), 1 μL of 10 μmol/L forward and reverse primer each, 1 μL of cDNA template and 7 μL of H2O in a Bio-Rad CFX96 Connect Real-Time PCR system. Primers using to quantify mRNA expression were ordered from Metabion (Table 2).
Bulk RNA sequencing was performed as previously described (J. U. G. Wagner, E. Chavakis, E. M. Rogg, M. Muhly-Reinholz, S. F. Glaser, S. Gunther, D. John, F. Bonini, A. M. Zeiher, L. Schaefer, M. J. Hannocks, R. A. Boon, S. Dimmeler, 2018, Arterioscler Thromb Vasc Biol 38(5), 1170-1177). […] Sequencing was performed on the NextSeq500 instrument (IIlumina) using v2 chemistry, resulting in minimum of 30M reads per library with 1×75 bp single end setup. […]

[8] = system: cardiac tissue mimetics (CTMs); assay: CTM vascularisation (GFP-HUVEC sprout length, thickness, branch points); assay type: cell-based, rat, human; conditions: 200 μM PE, 10 days, vs control; for filopodia formation in CTMs: FIG. 13; for vascularization / angiogenesis of CTMs: FIGS. 13, 14, 36

SMILES: CNC[C@H](O)c1cccc(O)c1 [PE, phenylephrine]
- extracellular lactate dehydrogenase (LDH) as marker of necrosis ([1]; mature CTMs with PE vs untreated control, FIG. 35): failed to reveal differences
- cytotoxicity in CTMs (p-γ-H2AX staining, LDH activity) ([1]; phenylephrine-treated mature CTMs, FIGS. 34 and 35): no cytotoxicity
- contraction frequency ([2]; day 3, FIG. 41): significantly increased
- volume of the CTMs ([2]; day 3, FIG. 42): no significant change
- lactate concentration in culture media ([2]; day 3, FIG. 43): significant increase
- contraction frequency ([2]; day 20, FIG. 41): significantly increased
- lactate concentration in culture media ([2]; day 20, FIG. 43): significant increase
- volume of the CTMs ([2]; day 20, vs control, FIG. 42): significant increase
- contractile amplitude in paced CTMs [3]: significant increase; also recorded: augment
- glycolysis (basal extracellular acidification rate) ([4]; FIG. 11): reduction
- oxidation metabolism (oxygen consumption rate) ([4]; FIGS. 9-10): increased
- CTM growth (size as volume) [5]: significantly increased
- cardiomyocyte maturation and hypertrophy (sarcomeric α-actinin staining, sarcomere organization and density) ([6]; 200 μM PE, 10 days, vs control, FIGS. 5-7): significantly increased
- mitochondrial function and mitochondrial density ([6]; PE-treated vs control CTMs, Atp5a1 staining, FIGS. 9-12): increased
- EC spheroid growth / vascular network growth and branching (cumulative sprout length), direct treatment (HUVEC spheroids; HUVEC spheroids, 200 μM PE or 50 ng/mL VEGF, 24 hours, FIG. 15): did not impact
- EC growth and sprouting with conditioned medium of PE-stimulated CM (HUVEC spheroids; neonatal rat CM treated with PE 72 hours, supernatant on HUVEC spheroids 24 hours, FIG. 17): significantly increase
- EC sprouting with conditioned medium of PE-stimulated FB (HUVEC spheroids; neonatal rat FB treated with PE 72 hours, supernatant on HUVEC spheroids 24 hours, FIG. 38): no effect
- KEGG gene sets for adrenergic signaling, metabolism and contractility ([7]; PE stimulation vs untreated CTMs, FIG. 33): enrichment and elevated expression
- titin isoform mRNA expression (N2B, N2BA2) ([7]; PE-treated vs control CTMs, FIG. 6): shift towards adult-type titin isoform expression
- filopodia formation in CTMs [8]: more filopodia
- filopodia formation in CTMs ([8]; listed as phenylephrine): induces
- number of branch points in CTMs ([8]; FIG. 14): increased
- tube length (accumulated sprout length) in CTMs ([8]; FIG. 14): increased
- tube thickness in CTMs ([8]; FIG. 14): increased
- vascularization / angiogenesis of CTMs [8]: significantly augmented
- vascularization / angiogenesis of CTMs ([8]; listed as phenylephrine): induces
